What was measured:
[1] = tested on: Rat Peripheral Blood Lymphocyte Count; assay: Measurement of rat peripheral blood lymphocyte count (relative count and ID50) after oral administration; format: in vivo; conditions: LEW rats; for Lymphocyte Count (Relative Value Based on a value of 100% for Normal Control Group) (%): blood collected 3 hours after administration, dose not given; for ID50 of rat peripheral blood lymphocyte count: dosage giving 50% inhibition rate of lymphocyte count
Description: Measurement of Rat Peripheral Blood Lymphocyte Count
• (1) LEW rats (males, age 5 weeks, Japan Charles River) were used in groups of 5 animals per group. • (2) Administration of Compounds
The compounds were suspended in 1% tragacanth liquid (solvent). The suspended compounds were orally administered to the rats using a gastric tube in a dose of 5 mL per kg of body weight. Furthermore, the solvent was administered instead of the suspended compounds to a normal control group. • (3) Measurement of Peripheral Blood Lymphocyte Count
Blood samples were collected from the descending vena cava under ether anesthesia 3 hours after administration of the solvent or suspended compounds, and then transferred to tubes containing EDTA.
The absolute lymphocyte counts were measured for the collected blood samples using a hematology testing device. Lymphocyte count lowering activity of the test compounds was calculated as a relative value (%) based on a value of 100% for the lymphocyte count of the normal control group.
Measurement of ID50 of Rat Peripheral Blood Lymphocyte Count (mg/kg)
Inhibition rate (%) ={1-(lymphocyte count of compound dose group/lymphocyte count of solvent dose group)}×100 The dosage of the compound that yielded a value of 50% for the inhibition rate was calculated as the ID50 value.

[2] = Rat pharmacokinetics (dosage: 1 mg/kg), blood compound concentrations; format: in vivo; conditions: male, whole blood, po, LEWIS rats, 1 mg/kg directly into the stomach; for AUC(0-t): read-out: AUC (0–24 h); for half-life: read-out: T½ (converted)
Description: Rat Pharmacokinetics (dosage: 1 mg/kg)
• (1) LEWIS rats (males, age 6 weeks, Japan Charles River) were used after acclimating for 1 week. 1 to 3 rats were used for each compound. • (2) Administration of Compounds
The compounds were dissolved in an aqueous physiological saline solution containing 4% (w/v) sulfobutyl ether β-cyclodextrin. The rats were administered the dissolved compounds directly into the stomach using a metal gastric tube in a dose of 2 mL per kg of body weight. • (3) Measurement of Blood Compound Concentrations
Blood samples were collected at 0.1 mL/animal/collection from the jugular vein using heparin as anticoagulant under ether anesthesia at predetermined times after administering the compounds. The blood samples were promptly treated with methanol after collection, and were placed in frozen storage until the time of measurement treatment. After treating the resulting blood samples by solid phase extraction, blood compound concentrations were measured with a high-performance liquid chromatograph-quadropole mass spectrometer. Various pharmacokinetic parameters were then calculated using pharmacokinetics analysis software (Winnonlin Professional) from the resulting blood concentrations.

SMILES	Lymphocyte Count (Relative Value Based on a value of 100% for Normal Control Group) (%) [1]	ID50 of rat peripheral blood lymphocyte count [1]	Cmax [2]	AUC(0-t) [2]	half-life [2]
CC(N)(CO)CCc1ccc(C(=O)CCCCc2ccccc2)s1 (centres unmarked) [Comparative Compound 1, reference compound]	30%	–	–	–	–
Cn1c(CC[C@@](C)(N)CO)ccc1C(=O)CCCc1ccccc1 [Comparative Compound 2, reference compound]	31%	0.78 mg/kg	–	–	–
Cc1ccc(CCCC(=O)c2ccc(CC[C@@](C)(N)CO)n2C)cc1.Cl [Example 1, (2R) -2-Amino-2-methyl-4-{1-methyl-5-[4-(4-methylphenyl)butanoyl]pyrrol-2-yl}butan-1-ol hydrochloride]	8%	0.21 mg/kg	19.4 ng/mL	288 ng·h/mL	15.6 h
Cc1ccc(CCCC(=O)c2ccc(CC[C@@](C)(N)CO)n2C)cc1C.Cl [Example 2, (2R)-2-Amino-2-methyl-4-{1-methyl-5-[4-(3,4-dimethylphenyl)butanoyl]pyrrol-2-yl}butan-1-ol hydrochloride]	–	–	8.4 ng/mL	123 ng·h/mL	8.5 h
Cc1ccc(CCCC(=O)c2ccc(CC[C@@](C)(N)CO)n2C)cc1C.Cl [Example 2]	–	0.42 mg/kg	–	–	–
COc1ccc(CCCC(=O)c2ccc(CC[C@@](C)(N)CO)n2C)cc1C.Cl [Example 11, (2R)-2-Amino-2-methyl-4-{1-methyl-5-[4-(3-methyl-4-methoxyphenyl)butanoyl]pyrrol-2-yl}butan-1-ol hydrochloride]	11%	0.39 mg/kg	5.38 ng/mL	71.7 ng·h/mL	6.04 h
